Assay results published in the METLIN SMRT retention time set (Domingo-Almenara et al. 2019).

Test: gradient 5% acetonitrile 3 min, to 50% in 2 min, to 85% in 15 min, held 3 min, 100 µL/min
Settings: column: Zorbax Extend-C18 2.1 x 50 mm; eluents: water / acetonitrile, 0.1% formic acid
Outline: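 Mixtures of ~100 pure standards were chromatographed on a Zorbax Extend-C18 column (2.1 × 50 mm, 1.8 μm) at 100 μL/min using water and acetonitrile, each with 0.1% formic acid. Detection used a quadrupole time-of-flight mass spectrometer in positive and negative ionization mode, and data collection spanned 3 months. Retention time was obtained from adduct peaks picked computationally and each checked manually.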

Row | RP-LC retention time | Compound
1 | 988 s | CCC(C(=O)NCc1cccc(OC)c1OC)n1sc2ccccc2c1=O (stereo not given)
2 | 1060 s | COC(=O)c1[nH]c(C)c(CN(C(=O)C2CCCCC2)C2CCCC2)c1C
3 | 1070 s | CCOC(=O)C1CCCN(c2ncnc3c2cnn3-c2ccccc2)C1 (stereo not given)
4 | 750 s | CCCn1cnc2ccc(-c3noc(Cc4cccs4)n3)cc21
5 | 853 s | O=C(NCc1cccs1)c1nc2ccccn2c1-c1ccccc1
6 | 789 s | O=C(Nc1cnc(N2CCOCC2)nc1)c1cc(F)cc(F)c1
7 | 932 s | CN(c1ccc(F)cc1)S(=O)(=O)N1CCCC(C(=O)NCCc2c[nH]c3ccccc23)C1 (stereo not given)
8 | 666 s | O=C(OCCN1CCCCC1)c1c[nH]c2ccccc12
9 | 521 s | O=C(CCC1NC(=O)c2ccccc2NC1=O)Nc1ncn[nH]1 (stereo not given)
10 | 735 s | Cc1cccn2c(Nc3ccc4c(c3)OCCO4)c(-c3ccc(N(C)C)cc3)nc12
11 | 585 s | Cc1nc2cccnc2n1CCN1CCN(C(=O)Nc2ccc(F)cc2F)CC1
12 | 1010 s | O=C(Nc1ccc2c(c1)OCO2)N1CCN(c2nc3cccnc3n(Cc3ccccc3)c2=O)CC1
13 | 862 s | CC(NC(=O)c1ccc2c(c1)CCCN2S(C)(=O)=O)c1ccccc1 (stereo not given)
14 | 1150 s | O=C(NC1CCCCCC1)C1CCCN(c2ncc(-c3ccc(F)cc3)cn2)C1 (stereo not given)
15 | 843 s | O=C(COc1ccccc1)N1CCC(CNS(=O)(=O)c2ccc(Cl)s2)CC1
16 | 623 s | NC(=O)c1cc(-c2ccccc2)n[nH]1
17 | 829 s | Cc1cc(C)cc(NC(=O)Cn2ccc3ccn(C)c3c2=O)c1
18 | 787 s | COc1ccc(NC(=O)C2CCCN2S(=O)(=O)c2ccc3c(c2)CCCC(=O)N3)cc1Cl (stereo not given)
19 | 592 s | Cn1nnnc1SCC(=O)NCCn1nc(-c2ccco2)ccc1=O
20 | 695 s | CCOC(=O)NCCS(=O)(=O)N1CCN(c2ccc(OC)cc2)CC1
21 | 987 s | CC1=NS(=O)(=O)N(C)C=C1C(=O)OCc1nc(Cc2ccccc2C)no1
22 | 780 s | CCOCCCNC(=O)C1CCN(C2=NS(=O)(=O)C(c3ccc(Cl)cc3)=C2C)CC1
23 | 734 s | Cc1ccc(Cn2cc(-c3ccncc3)cc2C(=O)NCc2ccc(C)o2)cc1

Row | RP-LC retention time | Compound
24 | 898 s | O=C(Nc1ccc(C2(C(=O)NCc3ccc(F)cc3Cl)CCC2)cc1)C1CC1
25 | 708 s | COc1ccc(Cl)cc1S(=O)(=O)N1CCCC(Cn2cnc3cccnc32)C1 (stereo not given)
26 | 884 s | CCn1cc(-c2nc(CC(=O)Nc3ccc(OC)c(F)c3)cs2)c2cccnc21
27 | 861 s | CC1(CNS(=O)(=O)c2ccc(F)c(Cl)c2)CCOCC1
28 | 598 s | CN(C)c1ccc(CNC(=O)C2CCN(S(=O)(=O)c3ccc4c(c3)NC(=O)CO4)CC2)cc1
29 | 773 s | O=S(=O)(NCc1nnnn1-c1ccc(Cl)cc1)c1ccc2c(c1)OCCO2
30 | 696 s | O=C(NCCN1CCCCC1)C1CCCN(c2ncc(-c3cccc(F)c3)cn2)C1 (stereo not given)
31 | 739 s | O=C(NCc1cccc(Br)c1)C1CCCN(c2cnc3nccnc3c2)C1 (stereo not given)
32 | 606 s | O=C(c1cccnc1N1CCNC(c2ccccc2)C1)N1CCSCC1 (stereo not given)
33 | 906 s | COc1ccc(-c2nnc(COc3cccc(NC(=O)Cc4cccs4)c3)o2)cc1
34 | 913 s | CC1CCc2ccccc2N1C(=O)c1cccs1 (stereo not given)
35 | 891 s | Cn1ncc2c(Nc3ccccc3Cl)nc(Cl)nc21
36 | 692 s | CCN1CCn2cc(S(=O)(=O)Nc3ccc(C(=O)OC)cc3)cc2C1=O
37 | 1040 s | Cc1ccc(-c2nc(Nc3ccccc3Cl)sc2CC(=O)O)cc1
38 | 859 s | CCC(=O)Nc1ccc(C2(C(=O)NCC(C)C)CCCCC2)cc1
39 | 1230 s | CCOc1nccnc1N1CCC(NS(=O)(=O)C2CC2)C1 (stereo not given)
40 | 753 s | CCn1cc(CN2CCC(C(=O)NC(C)c3ccccc3)CC2)c2cc(Cl)ccc21 (stereo not given)
41 | 811 s | COc1cccc(CNC(=O)C2=C3CCCN3c3ccccc3S2(=O)=O)c1
42 | 678 s | Cc1cc2[nH]c(C(=O)Nc3cc(F)ccc3C)c(CN3CCOCC3)c2s1
43 | 792 s | CCCOCCOC(=O)C1=C(C)NC2=C(C(=O)CCC2)C1c1ccc(OC)cc1OC (stereo not given)
44 | 708 s | Cc1cc(C)n(CCNC(=O)c2nc3ccccc3s2)n1
45 | 797 s | Cc1ccccc1CC(=O)N1CCCC1c1c(C)noc1C (stereo not given)
